Target: T1, human kinase Mps-1 (Homo sapiens, UniProt P33981)
T1 construct: N-terminally GST-tagged human full length recombinant Mps-1 kinase; GST (N); purchased Invitrogen, Karslruhe, Germany PV4071
T1 sequence (P33981 1-857): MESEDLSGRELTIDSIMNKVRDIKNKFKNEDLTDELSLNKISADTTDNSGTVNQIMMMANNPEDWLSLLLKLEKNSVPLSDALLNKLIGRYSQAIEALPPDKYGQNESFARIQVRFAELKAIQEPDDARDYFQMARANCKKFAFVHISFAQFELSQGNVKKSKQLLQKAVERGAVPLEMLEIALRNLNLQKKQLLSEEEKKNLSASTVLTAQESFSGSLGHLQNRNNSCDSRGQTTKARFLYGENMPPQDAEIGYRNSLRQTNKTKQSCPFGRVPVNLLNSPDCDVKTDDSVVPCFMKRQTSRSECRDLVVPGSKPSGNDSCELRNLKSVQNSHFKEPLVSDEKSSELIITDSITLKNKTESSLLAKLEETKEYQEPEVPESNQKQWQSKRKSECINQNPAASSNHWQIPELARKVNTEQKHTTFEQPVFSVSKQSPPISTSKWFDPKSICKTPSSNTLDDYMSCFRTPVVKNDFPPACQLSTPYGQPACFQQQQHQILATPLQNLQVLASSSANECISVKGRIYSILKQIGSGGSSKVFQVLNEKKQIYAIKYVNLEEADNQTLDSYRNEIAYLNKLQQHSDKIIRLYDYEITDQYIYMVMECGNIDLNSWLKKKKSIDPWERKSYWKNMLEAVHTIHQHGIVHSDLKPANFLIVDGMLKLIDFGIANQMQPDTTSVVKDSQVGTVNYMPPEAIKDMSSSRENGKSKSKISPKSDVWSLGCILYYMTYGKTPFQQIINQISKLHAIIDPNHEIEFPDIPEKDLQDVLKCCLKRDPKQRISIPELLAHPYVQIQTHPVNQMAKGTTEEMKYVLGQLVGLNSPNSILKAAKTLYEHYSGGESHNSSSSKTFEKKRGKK
Assay: Mps-1 kinase assay (HTRF)
Type: biochemical
Procedure: The human kinase Mps-1 phosphorylates a biotinylated substrate peptide. Detection of the phosphorylated product is achieved by homogenous time-resolved fluorescence resonance energy transfer (HTRF) from Europium-labelled anti-phospho-Serine/Threonine antibody as donor to streptavidin labelled with cross-linked allophycocyanin (SA-XLent) as acceptor. Compounds are tested for their inhibition of the kinase activity.
N-terminally GST-tagged human full length recombinant Mps-1 kinase (purchased from Invitrogen, Karslruhe, Germany, cat. no PV4071) was used. As substrate for the kinase reaction a biotinylated peptide of the amino-acid sequence […] (C-terminus in amide form, purchased from Biosynthan GmbH, Berlin) was used.
The concentration of Mps-1 in the assay was adjusted to the activity of the enzyme lot and was chosen appropriate to have the assay in the linear range, typical enzyme concentrations were in the range of about 1 nM (final conc. in the 5 μl assay volume).
The resulting mixture was incubated 1 h at 22° C. to allow the binding of the phosphorylated peptide to the anti-phospho(Ser/Thr)-Europium-antibody. Subsequently the amount of phosphorylated substrate was evaluated by measurement of the resonance energy transfer from the Europium-labelled anti-phospho(Ser/Thr) antibody to the Streptavidin-XLent.

Q: Which IC50 does the source give for `COc1cc(C(=O)NC(C)(C)CO)ccc1Nc1nc2ccc(-c3ccc(C(=O)NCCC(F)(F)F)cc3)cn2n1` [Example 11.023, N-(1-hydroxy-2-methylpropan-2-yl)-3-methoxy-4-[(6-{4-[(3,3,3-trifluoropropyl)carbamoyl]phenyl}[1,2,4]tria-zolo[1,5-a]pyridin-2-yl)amino]benzamide] here?
A: 0.00522 µM

Q: How did the IC50 turn out when `N#Cc1ccccc1Nc1nc2ccc(-c3cccc(C(=O)NCCF)c3)cn2n1` [Example 11.054, 3-{2-[(2-cyanophenyl)amino][1,2,4]triazolo[1,5-a]pyridin-6-yl}-N-(2-fluoroethyl)benzamide] was run?
A: 0.00613 µM

Q: With `N#Cc1ccccc1Nc1nc2ccc(-c3cc(F)cc(C(=O)NCC(F)(F)F)c3)cn2n1` [Example 11.059, 3-{2-[(2-cyanophenyl)amino][1,2,4]triazolo[1,5-a]pyridin-6-yl}-5-fluoro-N-(2,2,2-trifluoroethyl)benzamide] as the molecule, how does the IC50 read?
A: 0.0126 µM

Q: For `Cc1cc(-c2ccc3nc(Nc4cccnc4)nn3c2)cc(C)c1O` [Example 1.8, 2,6-dimethyl-4-[2-(pyridin-3-ylamino)[1,2,4]triazolo [1,5-a]pyridin-6-yl]phenol], which IC50 is on record?
A: 0.32 µM

Q: With `N#Cc1ccccc1Nc1nc2ccc(-c3cccc(C(=O)NCC(F)(F)C(F)(F)F)c3F)cn2n1` [Example 11.063, 3-{2-[(2-cyanophenyl)amino][1,2,4]triazolo[1,5-a]pyridin-6-yl}-2-fluoro-N-(2,2,3,3,3-pentafluoropropyl)benzamide] as the molecule, how does the IC50 read?
A: 0.0173 µM

Q: For `CC(C)[C@@H](C)NC(=O)c1cccc(-c2ccc3nc(Nc4ccccc4C#N)nn3c2)c1` [Example 11.047, 3-{2-[(2-cyanophenyl)amino][1,2,4]triazolo[1,5-a]pyridin-6-yl}-N-[(2R)-3-methylbutan-2-yl]benzamide], which IC50 is on record?
A: 0.00415 µM

Q: For `CCNC(=O)c1ccc(Nc2nc3ccc(-c4cccc(C(=O)NCC(F)(F)F)c4)cn3n2)c(OC)c1` [Example 11.081, N-ethyl-3-methoxy-4-[(6-{3-[(2,2,2-trifluoroethyl)carbamoyl]phenyl}[1,2,4]triazolo [1,5-a]pyridin-2-yl)amino]benzamide], which IC50 is on record?
A: ≤ 0.001 µM

Q: Which IC50 does the source give for `N#Cc1ccccc1Nc1nc2ccc(-c3cccc(C(=O)NCC(F)(F)F)c3)cn2n1` [Example 11.044, 3-{2-[(2-cyanophenyl)amino][1,2,4]triazolo[1,5-a]pyridin-6-yl}-N-(2,2,2-trifluoroethyl)benzamide] here?
A: 0.00147 µM

Q: Which IC50 does the source give for `COC(C)(C)CNC(=O)c1cccc(-c2ccc3nc(Nc4ccccc4C#N)nn3c2)c1` [Example 11.060, 3-{2-[(2-cyanophenyl)amino][1,2,4]triazolo[1,5-a]pyridin-6-yl}-N-(2-methoxy-2-methylpropyl)benzamide] here?
A: 0.00904 µM

Q: `N#Cc1ccccc1Nc1nc2ccc(-c3cccc(O)c3)cn2n1` [Example 3.17, 2-{[6-(3-hydroxyphenyl)[1,2,4]triazolo[1,5-a]pyridin-2-yl]amino}benzonitrile] was tested. Which IC50 did it give?
A: 0.028 µM

Q: For `CCOC(=O)c1cccc(-c2ccc3nc(Nc4ccccc4C#N)nn3c2)c1` [Example 9.1, ethyl 3-{2-[(2-cyanophenyl)amino][1,2,4]triazolo[1,5-a]pyridin-6-yl}benzoate], which IC50 is on record?
A: 0.5 µM

Q: How did the IC50 turn out when `COCCNC(=O)c1cccc(-c2ccc3nc(Nc4ccccc4C#N)nn3c2)c1` [Example 11.068, 3-{2-[(2-cyanophenyl)amino][1,2,4]triazolo[1,5-a]pyridin-6-yl}-N-(2-methoxyethyl)benzamide] was run?
A: 0.0247 µM

Q: For `CC(C)(C)CNC(=O)c1ccc(-c2ccc3nc(Nc4ccccc4C#N)nn3c2)cc1` [Example 11.012, 4-{2-[(2-cyanophenyl)amino][1,2,4]triazolo[1,5-a]pyridin-6-yl}-N-(2,2-dimethylpropyl)benzamide], which IC50 is on record?
A: 0.00828 µM

Q: With `C[C@@H](NC(=O)c1cccc(-c2ccc3nc(Nc4ccccc4C#N)nn3c2)c1)C(C)(C)C` [Example 11.039, 3-{2-[(2-cyanophenyl)amino][1,2,4]triazolo[1,5-a]pyridin-6-yl}-N-[(2R)-3,3-dimethylbutan-2-yl]benzamide] as the molecule, how does the IC50 read?
A: 0.00171 µM

Q: For `O=C(NCCO)c1ccc(Nc2nc3ccc(-c4cccc(C(=O)NCC(F)(F)F)c4)cn3n2)c(OCC(F)(F)F)c1` [Example 11.093, N-(2-hydroxyethyl)-3-(2,2,2-trifluoroethoxy)-4-[(6-{3-[(2,2,2-trifluoroethyl)carbamoyl]phenyl}[1,2,4]triazolo [1,5-a]pyridin-2-yl)amino]benzamide], which IC50 is on record?
A: ≤ 0.001 µM

Q: With `CC(C)(C)CNC(=O)c1cccc(-c2ccc3nc(Nc4ccccc4C#N)nn3c2)c1F` [Example 11.058, 3-{2-[(2-cyanophenyl)amino][1,2,4]triazolo[1,5-a]pyridin-6-yl}-N-(2,2-dimethylpropyl)-2-fluorobenzamide] as the molecule, how does the IC50 read?
A: 0.0128 µM

Q: `CCN(CC)C(=O)c1ccc(Nc2nc3ccc(-c4ccc(C(=O)NCC(F)(F)F)cc4)cn3n2)cc1` [Example 11.038, N,N-diethyl-4-[(6-{4-[(2,2,2-trifluoroethyl)carbamoyl]phenyl}[1,2,4]triazolo [1,5-a]pyridin-2-yl)amino]benzamide] was tested. Which IC50 did it give?
A: 0.0105 µM

Q: How did the IC50 turn out when `CNCCN(C)C(=O)c1ccc(Nc2nc3ccc(-c4ccc(C(=O)NCC(F)(F)F)cc4)cn3n2)c(OC)c1` [Example 11.007, 3-methoxy-N-methyl-N-[2-(methylamino)ethyl]-4-[(6-{4-[(2,2,2-trifluoroethyl)carbamoyl]phenyl}[1,2,4]triazolo[1,5-a]pyridin-2-yl)amino]benzamide] was run?
A: ≤ 0.001 µM

Q: Which IC50 does the source give for `CNC(=O)c1ccc(Nc2nc3ccc(-c4cc(C)c(O)c(C)c4)cn3n2)cc1` [Example 1.15, 4-{[6-(4-hydroxy-3,5-dimethylphenyl)[1,2,4]triazolo[1,5-a]pyridin-2-yl]amino}-N-methylbenzamide] here?
A: 0.023 µM

Q: For `N#Cc1ccccc1Nc1nc2ccc(-c3cccc(C(=O)NCCF)c3F)cn2n1` [Example 11.072, 3-{2-[(2-cyanophenyl)amino][1,2,4]triazolo[1,5-a]pyridin-6-yl}-2-fluoro-N-(2-fluoroethyl)benzamide], which IC50 is on record?
A: 0.0422 µM

Q: How did the IC50 turn out when `CS(=O)(=O)Nc1cccc(-c2ccc3nc(Nc4ccccc4C#N)nn3c2)c1` [Example 3.5, N-(3-{2-[(2-cyanophenyl)amino] [1,2,4]triazolo[1,5-a]pyridin-6-yl}phenyl)methane-sulfonamide] was run?
A: 0.24 µM

Q: For `N#Cc1ccccc1Nc1nc2ccc(-c3ccc(F)c(C(=O)O)c3)cn2n1` [Example 11.073, 5-{2-[(2-cyanophenyl)amino][1,2,4]triazolo[1,5-a]pyridin-6-yl}-2-fluorobenzoic acid], which IC50 is on record?
A: 0.0435 µM

Q: With `N#Cc1ccccc1Nc1nc2ccc(-c3cccc(F)c3)cn2n1` [Example 3.12, 2-{[6-(3-fluorophenyl)[1,2,4]triazolo[1,5-a]pyridin-2-yl]amino}benzonitrile] as the molecule, how does the IC50 read?
A: 0.89 µM

Q: Which IC50 does the source give for `CC(C)(C)NC(=O)c1cccc(-c2ccc3nc(Nc4ccccc4C#N)nn3c2)c1` [Example 11.045, N-tert-butyl-3-{2-[(2-cyanophenyl)amino][1,2,4]triazolo[1,5-a]pyridin-6-yl}benzamide] here?
A: 0.00118 µM

Q: `CC(=O)Nc1cccc(-c2ccc3nc(Nc4ccc(C(C)C)cc4)nn3c2)c1` [Example 2.9, N-[3-(2-{[4-(propan-2-yl)phenyl]amino}[1,2,4]triazolo[1,5-a]pyridin-6-yl)phenyl]acetamide] was tested. Which IC50 did it give?
A: 1.8 µM

Q: For `CC(=O)Nc1ccccc1-c1ccc2nc(Nc3ccccc3C#N)nn2c1` [Example 3.4, N-(2-{2-[(2-cyanophenyl)amino] [1,2,4]triazolo[1,5-a]pyridin-6-yl}phenyl)acetamide], which IC50 is on record?
A: 6.1 µM

Q: Which IC50 does the source give for `CCOc1cc(C(=O)NC(C)(C)CO)ccc1Nc1nc2ccc(-c3ccc(C(=O)NCC(F)(F)F)cc3)cn2n1` [Example 11.029, 3-ethoxy-N-(1-hydroxy-2-methylpropan-2-yl)-4-[(6-{4-[(2,2,2-trifluoroethyl)carbamoyl]phenyl}[1,2,4]triazolo [1,5-a]pyridin-2-yl)amino]benzamide] here?
A: ≤ 0.001 µM

Q: How did the IC50 turn out when `CCNC(=O)c1ccc(Nc2nc3ccc(-c4cccc(C(=O)NCC(F)(F)C(F)(F)F)c4)cn3n2)c(OC)c1` [Example 11.083, N-ethyl-3-methoxy-4-[(6-{3-[(2,2,3,3,3-pentafluoropropyl)carbamoyl]phenyl}[1,2,4]triazolo[1,5-a]pyridin-2-yl)amino]benzamide] was run?
A: ≤ 0.001 µM

Source: patent US20130121994A1, “TRIAZOLOPYRIDINE DERIVATIVES” (BAYER INTELLECTUAL PROPERTY GMBH, priority 2009, published 2013)
